# Results reported in ChEMBL document CHEMBL1123948, “Synthesis and biological evaluation of poly-gamma-glutamyl metabolites of 10-deazaaminopterin and 10-ethyl-10-deazaaminopterin” (J Med Chem, 1988).
# “And” between values parts separate entries of the source, which are not always exact repeats. Equal entries are not always repeated.
# Key:
# Lacticaseibacillus casei [1] = experiment: Inhibitory activity against thymidylate synthase in Lactobacillus casei was determined (glutamate residue 2); type: functional, organism-based
# Lacticaseibacillus casei [2] = experiment: Inhibitory activity against thymidylate synthase in Lactobacillus casei was determined (glutamate residue 3); type: functional, organism-based
# Lacticaseibacillus casei [3] = experiment: Inhibitory activity against thymidylate synthase in Lactobacillus casei was determined (glutamate residue 4); type: functional, organism-based
# Lacticaseibacillus casei [4] = experiment: Inhibitory activity against the growth of Lactobacillus casei (ATCC 7469) was determined (glutamate residue 1); type: functional, organism-based
# Lacticaseibacillus casei [5] = experiment: Inhibitory activity against the growth of Lactobacillus casei (ATCC 7469) was determined (glutamate residue 2); type: functional, organism-based
# Lacticaseibacillus casei [6] = experiment: Inhibitory activity against the growth of Lactobacillus casei (ATCC 7469) was determined (glutamate residue 5); type: functional, organism-based
# Lacticaseibacillus casei [7] = experiment: Inhibitory activity against thymidylate synthase in Lactobacillus casei was determined (glutamate residue 5); type: functional, organism-based
# Lacticaseibacillus casei [8] = experiment: Inhibitory activity against the growth of Lactobacillus casei (ATCC 7469) was determined (glutamate residue 3); type: functional, organism-based
# Lacticaseibacillus casei [9] = experiment: Inhibitory activity against thymidylate synthase in Lactobacillus casei was determined (glutamate residue 1); type: functional, organism-based
# Lacticaseibacillus casei [10] = experiment: Inhibitory activity against the growth of Lactobacillus casei (ATCC 7469) was determined (glutamate residue 4); type: functional, organism-based
# Lacticaseibacillus casei [11] = experiment: Inhibitory activity against thymidylate synthase in Lactobacillus casei was determined (glutamate residue 6); type: functional, organism-based
# Lacticaseibacillus casei [12] = experiment: Inhibitory activity against the growth of Lactobacillus casei (ATCC 7469) was determined (glutamate residue 6); type: functional, organism-based
# [13] = system: Enterococcus hirae (Streptococcus faecium ATCC 8043); experiment: Inhibitory activity against the growth of Streptococcus faecium (ATCC 8043) was determined (glutamate residue 6)
# Dihydrofolate reductase [14] = molecular target: T1, Dihydrofolate reductase (Lactobacillus casei, UniProt P00381); experiment: Inhibitory activity against dihydrofolate reductase in Lactobacillus casei was determined (glutamate residue 2); type: functional, Lacticaseibacillus casei
# T1 sequence (P00381 whole entry): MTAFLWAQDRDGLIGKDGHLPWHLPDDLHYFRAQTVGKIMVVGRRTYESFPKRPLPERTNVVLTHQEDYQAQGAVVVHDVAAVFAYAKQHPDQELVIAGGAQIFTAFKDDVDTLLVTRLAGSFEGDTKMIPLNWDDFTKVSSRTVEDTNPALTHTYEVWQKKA
# Dihydrofolate reductase [15] = molecular target: T1, Dihydrofolate reductase; experiment: Inhibitory activity against dihydrofolate reductase in Lactobacillus casei was determined (glutamate residue 3); type: functional, Lacticaseibacillus casei
# Dihydrofolate reductase [16] = molecular target: T1, Dihydrofolate reductase; experiment: Inhibitory activity against dihydrofolate reductase in Lactobacillus casei was determined (glutamate residue 5); type: functional, Lacticaseibacillus casei
# Dihydrofolate reductase [17] = molecular target: T1, Dihydrofolate reductase; experiment: Inhibitory activity against dihydrofolate reductase in Lactobacillus casei was determined (glutamate residue 4); type: functional, Lacticaseibacillus casei
# Dihydrofolate reductase [18] = molecular target: T1, Dihydrofolate reductase; experiment: Inhibitory activity against dihydrofolate reductase in Lactobacillus casei was determined (glutamate residue 6); type: functional, Lacticaseibacillus casei
SMILES,IC50 (Lacticaseibacillus casei [1]),IC50 (Lacticaseibacillus casei [2]),IC50 (Lacticaseibacillus casei [3]),IC50 (Lacticaseibacillus casei [4]),IC50 (Lacticaseibacillus casei [5]),IC50 (Lacticaseibacillus casei [6]),IC50 (Lacticaseibacillus casei [7]),IC50 (Lacticaseibacillus casei [8]),IC50 (Lacticaseibacillus casei [9]),IC50 (Lacticaseibacillus casei [10]),IC50 (Lacticaseibacillus casei [11]),IC50 (Lacticaseibacillus casei [12]),IC50 [13],IC50 (Dihydrofolate reductase [14]),IC50 (Dihydrofolate reductase [15]),IC50 (Dihydrofolate reductase [16]),IC50 (Dihydrofolate reductase [17]),IC50 (Dihydrofolate reductase [18])
CCC(Cc1cnc2nc(N)nc(N)c2n1)c1ccc(C(=O)N[C@@H](CCC(=O)O)C(=O)O)cc1 (stereo not given in full) [EDATREXATE],170000 nM,28000 nM,14000 nM,0.63 nM,0.16 nM,90 nM,7400 nM,1 nM,> 300000 nM,9 nM,,,,,,,,
CN(Cc1cnc2nc(N)nc(N)c2n1)c1ccc(C(=O)N[C@@H](CCC(=O)O)C(=O)O)cc1 [METHOTREXATE],6000 nM,1100 nM,180 nM,,0.09 nM,2.2 nM,280 nM,0.2 nM,100000 nM,0.8 nM,280 nM,27 nM,> 8000 nM,,,,,
Nc1nc(N)c2nc(CCc3ccc(C(=O)N[C@@H](CCC(=O)O)C(=O)O)cc3)cnc2n1,88000 nM,11000 nM,5500 nM,0.08 nM,0.09 nM,14 nM,3500 nM,0.6 nM,> 300000 nM,3 nM,2300 nM,90 nM,> 3000 nM,18 nM and 24 nM,22 nM,21 nM,20 nM,34 nM
